Data set [1] concerns human cytomegalo virus (HCMV). In words: Inhibition of viral-induced cytopathicity, HCMV in HFF cells. The class given is cell-based.
For data set [2], the system named is herpes simplex virus type 2 (HSV-2). In words: Cytopathic effect inhibition assay (CPE) against HSV-2 in HFF cells. The following applies: for EC50: Human alphaherpesvirus 2, HFF. (Protection from cytopathic effect is a common read-out in antiviral testing.)
Data set [3] concerns herpes simplex virus type 1 (HSV-1). In words: Cytopathic effect inhibition assay (CPE) against HSV-1 in HFF cells. Conditions: for EC50: Human alphaherpesvirus 1, HFF.
The next data set concerns HFF cells. In words: Toxicity (reduction of cell viability) in the HSV, HCMV and VZV screenings. Conditions: reduction of cell viability by 50%. It counts as cell-based.
In data set [4] the test system is Staphylococcus aureus ATCC29213. In words: Antibacterial microdilution screening (Bioscreen C), S. aureus. It counts as cell-based. Conditions: 16 hours at 35° C., Mueller-Hinton broth. A general note: In broth dilution the organism is exposed to a series of concentrations in liquid medium.
Data set [5] deals with Clostridium perfringens ATCC 13124. The class given is cell-based. Conditions: 16 hours at 35° C., Mueller-Hinton broth.
Data set [6] relates to Pseudomonas aeruginosa ATCC 27853. In words: Antibacterial microdilution screening (Bioscreen C), P. aeruginosa. Conditions: 16 hours at 35° C., Mueller-Hinton broth. It counts as cell-based.
For data set [7], the system named is Cryptococcus neoformans ATCC 90112. In words: Antifungal microdilution screening (Bioscreen C), C. neoformans. It counts as cell-based. Conditions: 48 hours at 35° C., RPMI 1640.
The test system of data set [8] is varicella zoster virus (VZV). In words: Inhibition of viral-induced cytopathicity, VZV in HFF cells. It counts as cell-based.
Data set [9] deals with Trichophyton mentagrophytes ATCC 9533. In words: Antifungal microdilution screening (Bioscreen C), T. mentagrophytes. The class given is cell-based. Conditions: 5 days at 30° C., RPMI 1640.
In data set [10] the test system is Aspergillus fumigatus ATCC 2895. In words: Antifungal microdilution screening (Bioscreen C), A. fumigatus. The following applies: 3 days at 30° C., RPMI 1640. The class given is cell-based.
Another data set deals with West Nile virus. In words: Inhibition of viral-induced cytopathicity, West Nile virus in Vero cells. It counts as cell-based.
Another data set relates to E. coli ATCC 25922. In words: Antibacterial microdilution screening (Bioscreen C), E. coli. It counts as cell-based. The following applies: 16 hours at 35° C., Mueller-Hinton broth.
Data set [11] deals with Candida albicans ATCC 24433. In words: Antifungal microdilution screening (Bioscreen C), C. albicans. The class given is cell-based. The following applies: 24 hours at 35° C., RPMI 1640.
A further data set deals with Vero cells. Conditions: West Nile screening, reduction of cell viability by 50%.
Setting [12] is: viral-induced cytopathicity in HFF cell cultures.
Setting [13] is: compounds related to Compound A1 (Table 4).

Each structure is given as a SMILES string. In brackets after ≈: the same amount, converted by molar mass. Entries after “also recorded” stand apart in the source; their conditions may differ. Like-named read-outs stand apart in the source and are kept apart here.

The term EC50 denotes the concentration at which the effect is half-maximal.

Regarding `Nc1nc(O)c2ncn(COC(CO)CO)c2n1` [GCV, ganciclovir, reference compound], in [1] (Human betaherpesvirus 5, HFF, reference product, read-out: GCV EC50), the EC50 was determined as 0.8 µg/mL (≈ 3.13 µM).

For `Nc1nc2c(ncn2COCCO)c(=O)[nH]1` [ACV, Acyclovir, reference compound], the EC50 in data set [2] (read-out: ACV EC50) turned out to be 0.4 µg/mL (≈ 1.78 µM); in data set [3] (read-out: ACV EC50), 1.2 µg/mL (≈ 5.33 µM).

`CCO[C@@H]1[C@@H](OCC)[C@H](Cc2ccccc2)O[C@@H]2CO[C@@H](c3ccc(Cl)cc3)O[C@@H]12` [Compound A1]: the “Compound A1 CC50” value with HFF cells (HCMV screening) was 71.0 µg/mL; with HFF cells (HSV-1 screening) it was above 100 µg/mL; in the data set with HFF cells (HSV-2 screening), above 100 µg/mL; with HFF cells (VZV screening), above 100 µg/mL; with Vero cells, 50 µg/mL. Also, the “MIC S. aureus ATCC 29213” value in [4] was above 25 µg/mL. Also, the “MIC C. perfringens ATCC 13124” value in [5] is above 25 µg/mL. Further, the “MIC P. aeruginosa ATCC 27853” value in [6] was above 25 µg/mL. For the same molecule, the “MIC C. neoformans ATCC 90112” value in data set [7] was above 25 µg/mL. Besides, the “Compound A1 S.I. (CC50/EC50)” value was 0 in data set [8]; above 3333 in [2] (HSV-2); below 3.5 in [1]; 0 in the data set with West Nile virus (West Nile); above 33.3 in [3] (HSV-1). Also, the Compound A1 EC50 is above 100 µg/mL in data set [8] (setting [12]); below 0.03 µg/mL in data set [2] (HSV-2, viral-induced cytopathicity in HFF cell cultures); above 20 µg/mL in [1] (setting [12]); above 50 µg/mL in the data set on West Nile virus (West Nile virus, Vero cells); 3 µg/mL in [3] (HSV-1, viral-induced cytopathicity in HFF cell cultures). The “MIC T. mentagrophytes ATCC 9533” value in data set [9] was above 25 µg/mL. For the same molecule, the “Activity against HSV-2 (in words)” value in data set [2] (anti-viral screening) is “strong activity; also recorded: superior effect against HSV-2”. In addition, the “MIC A. fumigatus ATCC 2895” value in data set [10] is above 25 µg/mL. Further, the “MIC E. coli ATCC 25922” value in the data set with E. coli ATCC 25922 was above 25 µg/mL. In [11], the “MIC C. albicans ATCC 24433” value was above 25 µg/mL. In addition, in data set [3] (anti-viral screening), the “Activity against HSV-1 (in words)” value was “strong activity”.

Regarding `CO[C@@H]1[C@@H](OC)[C@H](Cc2ccccc2)O[C@@H]2CO[C@@H](c3ccc(Cl)cc3)O[C@@H]12`, the EC50 in data set [2] (read-out: EC50 HSV-2) and in [3] (read-out: EC50 HSV-1) was above 16 µg/mL throughout.

Regarding `C=CCO[C@@H]1[C@@H](OCC=C)[C@H](Cc2ccccc2)O[C@@H]2CO[C@@H](c3ccc(Cl)cc3)O[C@@H]12`, the “EC50 HSV-2” value in data set [2] (setting [13]) was above 16 µg/mL. Further, the “EC50 HSV-1” value in data set [3] (setting [13]) is above 16 µg/mL.

Regarding `CCO[C@@H]1[C@@H](OCC)[C@H](Cc2ccccc2)O[C@@H]2CO[C@@H](c3ccccc3)O[C@@H]12`, the EC50 in data set [2] (read-out: EC50 HSV-2) and in [3] (read-out: EC50 HSV-1) was above 80 µg/mL throughout.

Values taken from patent US7098243B2, “Bicyclic carbohydrates as antiviral bioactives for the treatment of infections caused by the alphaherpesvirinae HSV-1 and HSV-2” (Kemin Pharma Europe B.V.B.A., priority 2003, dated 2006).
